Measurements reported in ChEMBL document CHEMBL5335843, “Application of tobramycin benzyl ether as an antibiotic adjuvant capable of sensitizing multidrug-resistant Gram-negative bacteria to rifampicin” (2024).
Activity calls are given as the source filed them. The rule behind the calls is not given here.

What was measured:
Enterococcus faecium [1] = test: Antibiotic adjuvant activity against Enterococcus faecium 114278 assessed as fractional inhibitory concentration index incubated for 18 hrs in presence of rifampicin by two fold broth microdilution checkerboard assay; type: functional
Escherichia coli [2] = test: Antibiotic adjuvant activity against Escherichia coli ATCC 25922 assessed as fold potentiation incubated for 18 hrs in presence of rifampicin and CAMHB Na+ media by two fold broth microdilution checkerboard assay; type: functional
Pseudomonas aeruginosa [3] = test: Antibiotic adjuvant activity against multi-drug resistant Pseudomonas aeruginosa clinical isolate 101243 assessed as inhibition of bacterial growth incubated for 18 hrs in presence of Rifampicin by two fold broth microdilution checkerboard assay; type: functional
Escherichia coli [4] = test: Antibiotic adjuvant activity against multi-drug resistant Escherichia coli clinical isolate EC107115 assessed as inhibition of bacterial growth incubated for 18 hrs in presence of doxycycline by two fold broth microdilution checkerboard assay; type: functional
Pseudomonas aeruginosa [5] = test: Antibiotic adjuvant activity against multi-drug resistant Pseudomonas aeruginosa clinical isolate PA101243 assessed as fold potentiation incubated for 18 hrs in presence of minocycline by two fold broth microdilution checkerboard assay; type: functional
Escherichia coli [6] = test: Antibiotic adjuvant activity against multi-drug resistant Escherichia coli clinical isolate 94474 assessed as fractional inhibitory concentration index incubated for 18 hrs in presence of Rifampicin by two fold broth microdilution checkerboard assay; type: functional
Escherichia coli [7] = test: Antibiotic adjuvant activity against Escherichia coli ATCC 25922 assessed as fold increase in MIC incubated for 18 hrs in presence of rifampicin and CAMHB Mg2+ media by two fold broth microdilution checkerboard assay; type: functional
Pseudomonas aeruginosa [8] = test: Antibiotic adjuvant activity against multi-drug resistant Pseudomonas aeruginosa clinical isolate PA259 assessed as inhibition of bacterial growth incubated for 18 hrs in presence of doxycycline by two fold broth microdilution checkerboard assay; type: functional
Enterococcus faecium [9] = test: Antibacterial activity against Enterococcus faecium 128149 assessed as inhibition of bacterial growth incubated for 18 hrs by two fold broth microdilution assay; type: functional
Acinetobacter baumannii [10] = test: Antibiotic adjuvant activity against Acinetobacter baumannii ATCC 17978 assessed as fold potentiation incubated for 18 hrs in presence of vancomycin by two fold broth microdilution checkerboard assay; type: functional
Pseudomonas aeruginosa [11] = test: Antibiotic adjuvant activity against multi-drug resistant Pseudomonas aeruginosa clinical isolate PA114228 assessed as doxycycline MIC incubated for 18 hrs in presence of doxycycline by two fold broth microdilution checkerboard assay; type: functional
Pseudomonas aeruginosa [12] = test: Antibiotic adjuvant activity against multi-drug resistant Pseudomonas aeruginosa clinical isolate PA262 assessed as fold potentiation incubated for 18 hrs in presence of Rifampicin by two fold broth microdilution checkerboard assay; type: functional
Pseudomonas aeruginosa [13] = test: Antibiotic adjuvant activity against multi-drug resistant Pseudomonas aeruginosa clinical isolate PA259 assessed as doxycycline MIC incubated for 18 hrs in presence of doxycycline by two fold broth microdilution checkerboard assay; type: functional
Enterococcus faecium [14] = test: Antibiotic adjuvant activity against Enterococcus faecium 114278 assessed as inhibition of bacterial growth incubated for 18 hrs in presence of rifampicin by two fold broth microdilution checkerboard assay; type: functional
Escherichia coli [15] = test: Antibiotic adjuvant activity against Escherichia coli ATCC 25922 assessed as minocycline MIC incubated for 18 hrs in presence of minocycline by two fold broth microdilution checkerboard assay; type: functional
Escherichia coli [16] = test: Antibiotic adjuvant activity against multi-drug resistant Escherichia coli clinical isolate 94393 assessed as inhibition of bacterial growth incubated for 18 hrs in presence of Rifampicin by two fold broth microdilution checkerboard assay; type: functional
Pseudomonas aeruginosa [17] = test: Antibiotic adjuvant activity against multi-drug resistant Pseudomonas aeruginosa clinical isolate 114228 assessed as fractional inhibitory concentration index incubated for 18 hrs in presence of Rifampicin by two fold broth microdilution checkerboard assay; type: functional
Pseudomonas aeruginosa [18] = test: Antibiotic adjuvant activity against multi-drug resistant Pseudomonas aeruginosa clinical isolate PA114228 assessed as fractional inhibitory concentration index incubated for 18 hrs in presence of doxycycline by two fold broth microdilution checkerboard assay; type: functional
Pseudomonas aeruginosa [19] = test: Antibiotic adjuvant activity against multi-drug resistant Pseudomonas aeruginosa clinical isolate PA259 assessed as inhibition of bacterial growth incubated for 18 hrs in presence of Rifampicin by two fold broth microdilution checkerboard assay; type: functional
Escherichia coli [20] = test: Antibiotic adjuvant activity against multi-drug resistant Escherichia coli clinical isolate EC107115 assessed as fractional inhibitory concentration index incubated for 18 hrs in presence of minocycline by two fold broth microdilution checkerboard assay; type: functional
Escherichia coli [21] = test: Antibacterial activity against Escherichia coli ATCC 25922 assessed as inhibition of bacterial growth incubated for 18 hrs by two fold broth microdilution assay; type: functional
Pseudomonas aeruginosa [22] = test: Antibiotic adjuvant activity against multi-drug resistant Pseudomonas aeruginosa clinical isolate PA262 assessed as inhibition of bacterial growth incubated for 18 hrs in presence of minocycline by two fold broth microdilution checkerboard assay; type: functional
Acinetobacter baumannii [23] = test: Antibiotic adjuvant activity against multi-drug resistant Acinetobacter baumannii clinical isolate AB031 assessed as inhibition of bacterial growth incubated for 18 hrs in presence of Rifampicin by two fold broth microdilution checkerboard assay; type: functional
Escherichia coli [24] = test: Antibiotic adjuvant activity against Escherichia coli ATCC 25922 assessed as fold potentiation incubated for 18 hrs in presence of Rifampicin by two fold broth microdilution checkerboard assay; type: functional
Escherichia coli [25] = test: Antibiotic adjuvant activity against Escherichia coli ATCC 25922 at 8 to 11 ug/ml incubated for 18 hrs in presence of rifampicin and 25 % FBS media by two fold broth microdilution checkerboard assay; type: functional, organism-based; settings: dose 8-11 µg/ml
Acinetobacter baumannii [26] = test: Antibiotic adjuvant activity against Acinetobacter baumannii ATCC 17978 assessed as fold potentiation incubated for 18 hrs in presence of rifampicin and CAMHB Na+ media by two fold broth microdilution checkerboard assay; type: functional
Acinetobacter baumannii [27] = test: Antibiotic adjuvant activity against multi-drug resistant Acinetobacter baumannii clinical isolate 110193 assessed as rifampicin MIC incubated for 18 hrs in presence of Rifampicin by two fold broth microdilution checkerboard assay; type: functional
Acinetobacter baumannii [28] = test: Antibiotic adjuvant activity against multi-drug resistant Acinetobacter baumannii clinical isolate 92247 assessed as fold potentiation incubated for 18 hrs in presence of Rifampicin by two fold broth microdilution checkerboard assay; type: functional
Escherichia coli [29] = test: Antibiotic adjuvant activity against multi-drug resistant Escherichia coli clinical isolate 94393 assessed as fold potentiation incubated for 18 hrs in presence of Rifampicin by two fold broth microdilution checkerboard assay; type: functional
Staphylococcus aureus [30] = test: Antibiotic adjuvant activity against methicilin-resistant Staphylococcus aureus assessed as inhibition of bacterial growth incubated for 18 hrs in presence of rifampicin by two fold broth microdilution checkerboard assay; type: functional
Staphylococcus aureus [31] = test: Antibiotic adjuvant activity against methicilin-resistant Staphylococcus aureus assessed as fold potentiation incubated for 18 hrs in presence of rifampicin by two fold broth microdilution checkerboard assay; type: functional
Pseudomonas aeruginosa [32] = test: Antibiotic adjuvant activity against multi-drug resistant Pseudomonas aeruginosa clinical isolate PA101243 assessed as fold potentiation incubated for 18 hrs in presence of doxycycline by two fold broth microdilution checkerboard assay; type: functional
Pseudomonas aeruginosa [33] = test: Antibiotic adjuvant activity against multi-drug resistant Pseudomonas aeruginosa clinical isolate 114228 assessed as rifampicin MIC incubated for 18 hrs in presence of Rifampicin by two fold broth microdilution checkerboard assay; type: functional
Pseudomonas aeruginosa [34] = test: Antibiotic adjuvant activity against multi-drug resistant Pseudomonas aeruginosa clinical isolate PA259 assessed as fractional inhibitory concentration index incubated for 18 hrs in presence of minocycline by two fold broth microdilution checkerboard assay; type: functional
Acinetobacter baumannii [35] = test: Antibiotic adjuvant activity against multi-drug resistant Acinetobacter baumannii clinical isolate 110193 assessed as fractional inhibitory concentration index incubated for 18 hrs in presence of Rifampicin by two fold broth microdilution checkerboard assay; type: functional

Cl.NC[C@H]1O[C@H](O[C@H]2[C@H](OCc3ccccc3)[C@@H](O[C@H]3O[C@H](COCc4ccccc4)[C@@H](OCc4ccccc4)[C@H](N)[C@H]3OCc3ccccc3)[C@H](N)C[C@@H]2N)[C@H](N)C[C@@H]1OCc1ccccc1
fractional inhibitory concentration index (FICI) (Enterococcus faecium [1]): 1.5 | fold change (FC) (Escherichia coli [2]): 512 | MIC (Pseudomonas aeruginosa [3]): 8 µg/mL | MIC (Escherichia coli [4]): 8 µg/mL | fold change (FC) (Pseudomonas aeruginosa [5]): 1 | fractional inhibitory concentration index (FICI) (Escherichia coli [6]): 0.129 | fold change (FC) (Escherichia coli [7]): >=2 | MIC (Pseudomonas aeruginosa [8]): 8 µg/mL | MIC (Enterococcus faecium [9]): 16 µg/mL | fold change (FC) (Acinetobacter baumannii [10]): 8 | MIC (Pseudomonas aeruginosa [11]): > 128 µg/mL | fold change (FC) (Pseudomonas aeruginosa [12]): 1 | MIC (Pseudomonas aeruginosa [13]): 256 µg/mL | MIC (Enterococcus faecium [14]): 4 µg/mL | MIC (Escherichia coli [15]): 8 µg/mL | MIC (Escherichia coli [16]): 8 µg/mL | fractional inhibitory concentration index (FICI) (Pseudomonas aeruginosa [17]): 1.125 | fractional inhibitory concentration index (FICI) (Pseudomonas aeruginosa [18]): 1.063 | MIC (Pseudomonas aeruginosa [19]): 8 µg/mL | fractional inhibitory concentration index (FICI) (Escherichia coli [20]): 0.078 | MIC (Escherichia coli [21]): 32 µg/mL | MIC (Pseudomonas aeruginosa [22]): 8 µg/mL | MIC (Acinetobacter baumannii [23]): 8 µg/mL | fold change (FC) (Escherichia coli [24]): 8 | Activity (Escherichia coli [25]): inactive | fold change (FC) (Acinetobacter baumannii [26]): 256 | MIC (Acinetobacter baumannii [27]): 4 ng/mL | fold change (FC) (Acinetobacter baumannii [28]): 512 | fold change (FC) (Escherichia coli [29]): 1 | MIC (Staphylococcus aureus [30]): 4 µg/mL | fold change (FC) (Staphylococcus aureus [31]): 1 | fold change (FC) (Pseudomonas aeruginosa [32]): 1 | MIC (Pseudomonas aeruginosa [33]): 16 µg/mL | fractional inhibitory concentration index (FICI) (Pseudomonas aeruginosa [34]): 1.063 | fractional inhibitory concentration index (FICI) (Acinetobacter baumannii [35]): 0.126
